Converted amounts (≈) assume the structure as drawn. Where two headings read alike, the source gives them in different places.
How the values were obtained:
Format in all cases: cell-based
Mycobacterium avium [1] = assay: MIC, micro broth dilution with resazurin readout; conditions: read-out: Minimum Inhibitory Concentration (MIC)
Mycobacterium abscessus [2] = assay: MIC, micro broth dilution with resazurin readout; conditions: Mycobacteroides abscessus, read-out: Minimum Inhibitory Concentration (MIC)
Mycobacterium kansasii [3] = assay: MIC, micro broth dilution with resazurin readout; conditions: read-out: Minimum Inhibitory Concentration (MIC)
Mycobacterium avium [4] = assay: MBC, plating of MIC wells and CFU count; conditions: read-out: Minimum Bactericidal Concentration (MBC)
Mycobacterium abscessus [5] = assay: MBC, plating of MIC wells and CFU count; conditions: Mycobacteroides abscessus, read-out: Minimum Bactericidal Concentration (MBC)
Mycobacterium kansasii [6] = assay: MBC, plating of MIC wells and CFU count; conditions: read-out: Minimum Bactericidal Concentration (MBC)
[7] = system: Mycobacterium intracellulare; assay: MIC, micro broth dilution with resazurin readout; conditions: MH Culture Medium, read-out: Minimum Inhibitory Concentration (MIC)
[8] = system: Mycobacterium massiliense; assay: MIC, micro broth dilution with resazurin readout; conditions: Mycobacteroides abscessus, MH Culture Medium, read-out: Minimum Inhibitory Concentration (MIC)
Mycobacterium fortuitum = assay: MIC, micro broth dilution with resazurin readout; conditions: Mycolicibacterium fortuitum, MH Culture Medium, read-out: Minimum Inhibitory Concentration (MIC)
Mycodacterium chelonei = assay: MIC, micro broth dilution with resazurin readout; conditions: MH Culture Medium; Chelonei (standard strain); read-out: Minimum Inhibitory Concentration (MIC)
[9] = 7H9 Broth, Mycobacterium avium Smooth
[10] = MH Broth, Mycobacterium avium Smooth
[11] = 7H9 Broth, Mycobacterium avium Rough
[12] = MH Broth, Mycobacterium avium Rough

O=C(O)c1cn(C2CC2)c2cc(N3CCNCC3)c(F)cc2c1=O [Ciprofloxacin] was tested, and the MIC (Mycobacterium avium [1]; [9]) was > 64 µg/mL, the MIC (Mycobacterium avium [1]; [10]) was > 64 µg/mL and the MIC (Mycobacterium abscessus [2]; 7H9 Broth) was 16 µg/mL (≈ 48.3 µM). The MIC (Mycobacterium abscessus [2]; MH Broth) was > 64 µg/mL, the MIC (Mycobacterium kansasii [3]; 7H9 Broth) was > 64 µg/mL and the MIC (Mycobacterium kansasii [3]; MH Broth) was > 64 µg/mL. The MBC (Mycobacterium avium [4]; [9]) was > 64 µg/mL, the MBC (Mycobacterium avium [4]; [10]) was > 64 µg/mL and the MBC (Mycobacterium abscessus [5]; 7H9 Broth) was > 64 µg/mL. For the same compound, the MBC (Mycobacterium abscessus [5]; MH Broth) was > 64 µg/mL, the MBC (Mycobacterium kansasii [6]; 7H9 Broth) was > 64 µg/mL and the MBC (Mycobacterium kansasii [6]; MH Broth) was > 64 µg/mL.

With NCC[C@H](O)C(=O)N[C@@H]1C[C@H](N)[C@@H](O[C@H]2O[C@H](CN)[C@@H](O)[C@H](O)[C@H]2O)[C@H](O)[C@H]1O[C@H]1O[C@H](CO)[C@@H](O)[C@H](N)[C@H]1O [Amikacin] the MIC (Mycobacterium avium [1]; [11]) was > 64 µg/mL, the MIC (Mycobacterium avium [1]; [9]) was 2 µg/mL (≈ 3.42 µM) and the MIC (Mycobacterium avium [1]; [12]) was 2 µg/mL (≈ 3.42 µM). It also gave an MIC (Mycobacterium avium [1]; [10]) of 2 µg/mL (≈ 3.42 µM), an MIC (Mycobacterium abscessus [2]; 7H9 Broth) of 32 µg/mL (≈ 54.6 µM) and an MIC (Mycobacterium abscessus [2]; MH Broth) of 16 µg/mL (≈ 27.3 µM). The MIC (Mycobacterium kansasii [3]; 7H9 Broth) was 16 µg/mL (≈ 27.3 µM), the MIC (Mycobacterium kansasii [3]; MH Broth) was 1 µg/mL (≈ 1.71 µM) and the MBC (Mycobacterium avium [4]; [11]) was > 64 µg/mL. The MBC (Mycobacterium avium [4]; [9]) was > 64 µg/mL, the MBC (Mycobacterium avium [4]; [12]) was > 64 µg/mL and the MBC (Mycobacterium avium [4]; [10]) was > 64 µg/mL. For the same compound, the MBC (Mycobacterium abscessus [5]; 7H9 Broth) was > 64 µg/mL, the MBC (Mycobacterium abscessus [5]; MH Broth) was > 64 µg/mL and the MBC (Mycobacterium kansasii [6]; 7H9 Broth) was 64 µg/mL (≈ 109 µM). The MBC (Mycobacterium kansasii [6]; MH Broth) was > 64 µg/mL.

With CC[C@H]1OC(=O)[C@H](C)[C@@H](O[C@H]2C[C@@](C)(OC)[C@@H](O)[C@H](C)O2)[C@H](C)[C@@H](O[C@@H]2O[C@H](C)C[C@H](N(C)C)[C@H]2O)[C@](C)(OC)C[C@@H](C)C(=O)[C@H](C)[C@@H](O)[C@]1(C)O [Clarithromycin] the MIC (Mycobacterium avium [1]; [11]) was > 64 µg/mL, the MIC (Mycobacterium avium [1]; [9]) was 32 µg/mL (≈ 42.8 µM) and the MIC (Mycobacterium avium [1]; [12]) was > 64 µg/mL. For the same compound, the MIC (Mycobacterium avium [1]; [10]) was > 64 µg/mL, the MIC (Mycobacterium avium [1]; MH Culture Medium, Avium (standard strain)) was 0.0625 µg/mL (≈ 0.0836 µM) and the MIC (Mycobacterium avium [1]; MH Culture Medium, clinically isolated strain Avium (S31)) was 0.125 µg/mL (≈ 0.167 µM). It also gave an MIC (Mycobacterium avium [1]; MH Culture Medium, clinically isolated strain Avium (S123)) of 0.5 µg/mL (≈ 0.668 µM), an MIC (Mycobacterium avium [1]; MH Culture Medium, clinically isolated strain Avium (S559)) of 0.25 µg/mL (≈ 0.334 µM) and an MIC (Mycobacterium avium [1]; MH Culture Medium, clinically isolated strain Avium (S568)) of 4 µg/mL (≈ 5.35 µM). It also gave an MIC (Mycobacterium avium [1]; MH Culture Medium, clinically isolated strain Avium (S577)) of 0.25 µg/mL (≈ 0.334 µM), an MIC (Mycobacterium avium [1]; MH Culture Medium, clinically isolated strain Avium (S597)) of 1 µg/mL (≈ 1.34 µM) and an MIC (Mycobacterium avium [1]; MH Culture Medium, clinically isolated strain Avium (S602)) of 1 µg/mL (≈ 1.34 µM). It also gave an MIC (Mycobacterium abscessus [2]; 7H9 Broth) of 16 µg/mL (≈ 21.4 µM), an MIC (Mycobacterium abscessus [2]; MH Broth) of 64 µg/mL (≈ 85.6 µM) and an MIC (Mycobacterium kansasii [3]; 7H9 Broth) of 2 µg/mL (≈ 2.67 µM). It also gave an MIC (Mycobacterium kansasii [3]; MH Broth) of 2 µg/mL (≈ 2.67 µM), an MIC (Mycobacterium kansasii [3]; MH Culture Medium, Kansasii (standard strain)) of 0.0625 µg/mL (≈ 0.0836 µM) and an MIC (Mycobacterium kansasii [3]; MH Culture Medium, clinically isolated strain Kansasii (S9)) of 0.125 µg/mL (≈ 0.167 µM). It also gave an MIC (Mycobacterium kansasii [3]; MH Culture Medium, clinically isolated strain Kansasii (S199)) of 0.0625 µg/mL (≈ 0.0836 µM), an MIC (Mycobacterium kansasii [3]; MH Culture Medium, clinically isolated strain Kansasii (S520)) of 0.0625 µg/mL (≈ 0.0836 µM) and an MIC (Mycobacterium kansasii [3]; MH Culture Medium, clinically isolated strain Kansasii (S609)) of 0.125 µg/mL (≈ 0.167 µM). The MIC ([7]; Intracellulare (standard strain)) was 0.0625 µg/mL (≈ 0.0836 µM), the MIC ([7]; clinically isolated strain Intracellulare (S90)) was 1 µg/mL (≈ 1.34 µM) and the MIC ([7]; clinically isolated strain Intracellulare (S261)) was 1 µg/mL (≈ 1.34 µM). For the same compound, the MIC ([7]; clinically isolated strain Intracellulare (S269)) was 1 µg/mL (≈ 1.34 µM), the MIC ([7]; clinically isolated strain Intracellulare (S290)) was 1 µg/mL (≈ 1.34 µM) and the MIC ([7]; clinically isolated strain Intracellulare (S291)) was 1 µg/mL (≈ 1.34 µM). It also gave an MIC ([7]; clinically isolated strain Intracellulare (S298)) of 2 µg/mL (≈ 2.67 µM), an MIC ([7]; clinically isolated strain Intracellulare (S442)) of 2 µg/mL (≈ 2.67 µM) and an MIC ([7]; clinically isolated strain Intracellulare (S541)) of 64 µg/mL (≈ 85.6 µM). The MIC ([7]; clinically isolated strain Intracellulare (S623)) was 4 µg/mL (≈ 5.35 µM), the MIC ([7]; clinically isolated strain Intracellulare (ZPS)) was 1 µg/mL (≈ 1.34 µM) and the MIC ([8]; clinically isolated strain Massiliense (D10)) was 0.25 µg/mL (≈ 0.334 µM). It also gave an MIC ([8]; clinically isolated strain Massiliense (D14)) of 0.0625 µg/mL (≈ 0.0836 µM), an MIC ([8]; clinically isolated strain Massiliense (D18)) of 0.0625 µg/mL (≈ 0.0836 µM) and an MIC (Mycobacterium fortuitum; Fortuitum (standard strain)) of 32 µg/mL (≈ 42.8 µM). The MIC (Mycobacterium fortuitum; clinically isolated strain Fortuitum (S103)) was > 64 µg/mL, the MIC (Mycobacterium fortuitum; clinically isolated strain Fortuitum (S111)) was 2 µg/mL (≈ 2.67 µM) and the MIC (Mycodacterium chelonei) was 0.5 µg/mL (≈ 0.668 µM). The MBC (Mycobacterium avium [4]; [11]) was > 64 µg/mL, the MBC (Mycobacterium avium [4]; [9]) was > 64 µg/mL and the MBC (Mycobacterium avium [4]; [12]) was > 64 µg/mL. The MBC (Mycobacterium avium [4]; [10]) was > 64 µg/mL, the MBC (Mycobacterium abscessus [5]; 7H9 Broth) was > 64 µg/mL and the MBC (Mycobacterium abscessus [5]; MH Broth) was > 64 µg/mL. For the same compound, the MBC (Mycobacterium kansasii [6]; 7H9 Broth) was 64 µg/mL (≈ 85.6 µM) and the MBC (Mycobacterium kansasii [6]; MH Broth) was > 64 µg/mL.
